Assay results: patent US11464768B2, “Pimavanserin alone or in combination for use in the treatment of Alzheimer's disease psychosis” (ACADIA Pharmaceuticals Inc., priority 2016, dated 2022)

Legend:
ADP patients [1] = assay: Twelve-week randomized, double-blind, placebo-controlled study in ADP patients: NPI-NH psychosis score (Domains A and B); type: in vivo, human; details: for improvement in psychosis at day 43 / improvement in psychosis at day 43 (NPI-NH Psychosis subscale): Table 2 Delta; for NPI-NH PSYCHOSIS SCORE at day 43, Effect Size: pimavanserin vs placebo
From the text: (§1) To determine the score for a given domain, the caregivers rate frequency and severity of the resident's behavior for that particular domain. The frequency is rated on a 0-4 point scale. For example, the frequency is rated as a) 0 for not present; b) 1 for occasional; c) 2 for often; d) 3 for frequent; and e) 4 for very frequent occurrence of the behavior in question. The severity is rated on a 1-3 point scale. For example, the severity is rated as a) 1 for mild; b) 2 for moderate; and 3 for severe. The score of each domain is determined by multiplying the frequency rating score by the severity rating score. The score of each domain ranges from 0 to 12.
A psychosis score on the psychosis subscale is the total score of the score of delusions (Domain A) and hallucinations (Domain B). For example, when the delusions score (Domain A) is 4 and the hallucinations score (Domain B) is 6, the psychosis score is 10. The psychosis score typically ranges from 0 to 24.
A twelve-week, randomized, double-blind, placebo-controlled, single-center study was conducted in ADP patients in nursing homes. A purpose of the study was to evaluate the safety and efficacy of 34 mg pimavanserin compared to placebo in the treatment of ADP.
A total of 181 nursing home patients were enrolled in the study and randomized on a one-to-one basis to receive either 34 mg of pimavanserin or placebo once daily for twelve weeks, following a three-week screening period including brief psycho-social therapy. Patients with Alzheimer's disease (AD) are defined by the National Institute of Neurological and Communicative Disorders and Stroke-Alzheimer's Disease and Related Disorder Association (NINCDS-ADRDA) criteria for possible or probable AD (McKhann et al., Neuro., 1984, vol. 34, 939-944.) The mean age of patients in the study was 86 years.
After completing initial Screening Visit procedures (SV1), patients entered a 3-week screening period with antipsychotic medication washout. During the screening period, the patients received brief psychosocial therapy (BPST; Ballard et al., 2009) following best practice guidelines and safety assessments were performed. After the first Screening Visit (SV1), there were two additional contacts at weekly intervals with the BPST caregiver by phone (SV2 and SV3) to support the patient and the BPST caregiver in this screening phase. Safety assessments were also collected during this phase. At the discretion of the investigator and upon consultation with the Medical Monitor, patients were randomized into the double-blind phase of the study at any time during the screening period if there is a substantial worsening of psychotic symptoms.
Patients were randomized to one of two treatment groups in a 1:1 ratio (pimavanserin 34 mg or placebo), stratified by Baseline Mini-Mental State Examination (MMSE) total score and Neuropsychiatric Inventory-Nursing Home Version (NPI-NH) psychosis score (Domains A and B) (4 levels: MMSE<6 and NPI-NH<12, MMSE>6 and NPI-NH<12, MMSE<6 and NPI-NH>12, MMSE>6 and NPI-NH>12), and entered a 12 week double-blind treatment period.
Nursing home staff administered the study drug to the patient each morning as a single oral dose (2×17 mg tablets) beginning within 24 hours of completion of all baseline assessments (Day 1). During the double-blind treatment period, study visits were performed as follows: Baseline, Day 15, Day 29, Day 43, Day 64, and Day 85 (or early termination). A follow-up telephone safety visit occurred 4 weeks after the last dose of study medication. The NPI-NH psychosis subscale (Delusions+Hallucinations domains) was used to assess psychosis. Behavioral symptoms were assessed using the NPI-NH Total and Individual Behavioral Domain scores and the Cohen-Mansfield Agitation Inventory—Short Form (CMAI-SF). […]

ADP patients [2] = assay: Same twelve-week study: NPI-NH Agitation/Aggression subscale (Domain C); type: in vivo, human; details: pimavanserin arm; placebo arm 0.47
From the text: as §1
A twelve-week, randomized, double-blind, placebo-controlled, single-center study was conducted in ADP patients in nursing homes. […]
Nursing home staff administered the study drug to the patient each morning as a single oral dose (2×17 mg tablets) beginning within 24 hours of completion of all baseline assessments (Day 1). […] Behavioral symptoms were assessed using the NPI-NH Total and Individual Behavioral Domain scores and the Cohen-Mansfield Agitation Inventory—Short Form (CMAI-SF). […] In addition, evaluation of activities of daily living (ADL) was evaluated using the Alzheimer's Disease Cooperative Study-ADL instrument (ADCS-ADL). […]

[3] = test system: hyperactivity induced by the N-methyl-D-aspartate antagonist MK-801; details: mice; effective in these models at oral doses of 3 and 10 mg/kg; cited from earlier work

## CC(C)COc1ccc(CNC(=O)N(Cc2ccc(F)cc2)C2CCN(C)CC2)cc1 [Pimavanserin, N-(1-methylpiperidin-4-yl)-N-(4-fluorophenylmethyl)-N′-(4-(2-methylpropyloxy)phenylmethyl)carbamide]
ADP patients [1]; 34 mg once daily, 12 week study
  durability of efficacy: demonstrated an efficacy throughout the 12 week study
ADP patients [1]; 34 mg once daily, subgroup Baseline Agitation/Aggression Score <6 (n = 85), post-hoc analysis
  NPI-NH PSYCHOSIS SCORE at day 43, Pimavanserin Group (change from baseline): −1.40
ADP patients [1]; 34 mg once daily, subgroup Baseline Agitation/Aggression Score ≥6 (n = 93), post-hoc analysis
  NPI-NH PSYCHOSIS SCORE at day 43, Pimavanserin Group (change from baseline): −6.09
ADP patients [1]; 34 mg once daily, subgroup Baseline NPI-NH Psychosis Score <12 (n = 57), negative = improvement
  NPI-NH PSYCHOSIS SCORE at day 43, Pimavanserin Group (change from baseline): −0.58
ADP patients [1]; 34 mg once daily, subgroup Baseline NPI-NH Psychosis Score ≥12 & Agitation/Aggression Score ≥6 (n = 38), post-hoc analysis
  NPI-NH PSYCHOSIS SCORE at day 43, Pimavanserin Group (change from baseline): −10.93
ADP patients [1]; 34 mg once daily, subgroup Baseline NPI-NH Psychosis score ≥12 (n = 121), negative = improvement
  NPI-NH PSYCHOSIS SCORE at day 43, Pimavanserin Group (change from baseline): −10.15
ADP patients [1]; 34 mg once daily, subgroup No Prior Anti-psychotic use (n = 162)
  NPI-NH PSYCHOSIS SCORE at day 43, Pimavanserin Group (change from baseline): −4.15
ADP patients [1]; 34 mg once daily, subgroup Prior Anti-psychotic use (n = 16)
  NPI-NH PSYCHOSIS SCORE at day 43, Pimavanserin Group (change from baseline): −1.52
ADP patients [1]; 34 mg once daily, week 6, all patients, baseline mean 9.52, placebo 1.93 point, p=0.0451
  improvement in psychosis, NPI-NH Psychosis score (combined hallucinations and delusions domains), primary endpoint: 3.76 point
ADP patients [1]; baseline NPI-NH Psychosis score of 12 or greater and baseline Agitation/Aggression score of 6 or greater, p-value=0.0010
  improvement in psychosis at day 43: 7.18
ADP patients [1]; baseline NPI-NH psychosis score of 12 or greater and baseline Agitation/Aggression score of 6 or greater, p=0.0010
  effect on NPI-NH psychosis score (in words): effectively reduced
ADP patients [1]; patients having a baseline NPI-NH Agitation/Aggression score of 6 or greater, p-value=0.0010
  improvement in psychosis at day 43: 4.41 point
ADP patients [1]; patients having a baseline NPI-NH Agitation/Aggression score of 6 or greater, p=0.001
  effect on NPI-NH psychosis score (in words): effectively reduced
ADP patients [1]; patients having a baseline NPI-NH Agitation/Aggression score of less than 6, p-value=NS
  aggravating in psychosis at day 43: 0.42
ADP patients [1]; patients having a baseline NPI-NH Psychosis score of 12 or greater, p-value=0.0114
  improvement in psychosis at day 43 (NPI-NH Psychosis subscale): 4.43 point
ADP patients [1]; patients having a baseline NPI-NH psychosis score of 12 or greater, p=0.0114
  effect on NPI-NH psychosis score (in words): effectively reduced
ADP patients [1]; patients having a baseline NPI-NH psychosis score of less than 12, p-value=NS
  improvement in psychosis at day 43 (NPI-NH Psychosis subscale): 0.42
ADP patients [1]; patients that had anti-psychotic use prior to the baseline measurement on day 0, p-value=NS
  improvement in psychosis at day 43: 6.53 point
ADP patients [1]; patients who had prior anti-psychotic use
  effect on NPI-NH psychosis score (in words): effectively reduced
ADP patients [1]; pimavanserin arm, baseline NPI-NH Psychosis score of 12 or greater, baseline 15.30, day 43
  reduction of mean NPI-NH Psychosis score from baseline: 66.3%
ADP patients [1]; pimavanserin arm, baseline NPI-NH Psychosis score of 12 or greater, baseline score 15.30
  mean NPI-NH Psychosis score at day 43: 5.15
ADP patients [1]; subgroup Baseline Agitation/Aggression Score <6 (n = 85), post-hoc
  NPI-NH PSYCHOSIS SCORE at day 43, Effect Size: 0.122
ADP patients [1]; subgroup Baseline Agitation/Aggression Score ≥6 (n = 93), post-hoc
  NPI-NH PSYCHOSIS SCORE at day 43, Effect Size: −0.778
ADP patients [1]; subgroup Baseline NPI-NH Psychosis Score <12 (n = 57)
  NPI-NH PSYCHOSIS SCORE at day 43, Effect Size: −0.077
ADP patients [1]; subgroup Baseline NPI-NH Psychosis Score ≥12 & Agitation/Aggression Score ≥6 (n = 38), post-hoc
  NPI-NH PSYCHOSIS SCORE at day 43, Effect Size: −1.225
ADP patients [1]; subgroup Baseline NPI-NH Psychosis score ≥12 (n = 121)
  NPI-NH PSYCHOSIS SCORE at day 43, Effect Size: −0.734
ADP patients [1]; subgroup No Prior Anti-psychotic use (n = 162)
  NPI-NH PSYCHOSIS SCORE at day 43, Effect Size: −0.351
ADP patients [1]; subgroup Prior Anti-psychotic use (n = 16)
  NPI-NH PSYCHOSIS SCORE at day 43, Effect Size: −0.905
ADP patients [1]; subgroup Baseline Agitation/Aggression Score <6 (n = 85), post-hoc, P-Value NS
  NPI-NH PSYCHOSIS SCORE at day 43, Delta (difference between placebo group and pimavanserin group in change from baseline): 0.68
ADP patients [1]; subgroup Baseline Agitation/Aggression Score ≥6 (n = 93), post-hoc, P-Value 0.0010
  NPI-NH PSYCHOSIS SCORE at day 43, Delta (difference between placebo group and pimavanserin group in change from baseline): −4.41
ADP patients [1]; subgroup Baseline NPI-NH Psychosis Score <12 (n = 57), P-Value NS
  NPI-NH PSYCHOSIS SCORE at day 43, Delta (difference between placebo group and pimavanserin group in change from baseline): −0.42
ADP patients [1]; subgroup Baseline NPI-NH Psychosis Score ≥12 & Agitation/Aggression Score ≥6 (n = 38), post-hoc, P-Value 0.0010
  NPI-NH PSYCHOSIS SCORE at day 43, Delta (difference between placebo group and pimavanserin group in change from baseline): −7.18
ADP patients [1]; subgroup Baseline NPI-NH Psychosis score ≥12 (n = 121), P-Value 0.0114
  NPI-NH PSYCHOSIS SCORE at day 43, Delta (difference between placebo group and pimavanserin group in change from baseline): −4.43
ADP patients [1]; subgroup No Prior Anti-psychotic use (n = 162), P-Value 0.0374
  NPI-NH PSYCHOSIS SCORE at day 43, Delta (difference between placebo group and pimavanserin group in change from baseline): −1.90
ADP patients [1]; subgroup Prior Anti-psychotic use (n = 16), P-Value NS
  NPI-NH PSYCHOSIS SCORE at day 43, Delta (difference between placebo group and pimavanserin group in change from baseline): −6.53
ADP patients [1]; subgroup analysis, compared with no concomitant SSRI use
  treatment effect in patients with a concomitant Selective Serotonin Reuptake Inhibitor (SSRI) use: treatment effect larger than those with no concomitant SSRI use
ADP patients [1]; worded as an embodiment
  efficacious effect relative to placebo: about 2 times
ADP patients [2]
  improvement on the Agitation/Aggression subscale (Domain C) of the NPI-NH: 1.13 points
[3]
  attenuation of hyperactivity induced by MK-801: active
